Values of other authors, collected in patent publication US11576952B2, “Injectable solution at pH 7 comprising at least one basal insulin for which the pI is from 5.8 to 8.5 and a co-polyamino acid bearing carboxylate charges and hydrophobic radicals” (ADOCIA, priority 2017, dated 2023).

Conditions: background description

Substance: insulin glargine
- Period over which the blood sugar lowering effect is quasi-constant: 24 h
